Test results taken from patent publication US11905272B1, “3-(2-(4-methoxypyridin-3-yl)-4,5-diphenyl-1H-imidazol-1-yl)-N,N-dimethylpropan-1-amine as an anti-cancer compound” (KING FAISAL UNIVERSITY, priority 2023, dated 2024).

Assays:
[1] = tested on: human prostate cancer cells (PC3); test: Assessment of cytotoxicity by SRB assay (PC3); type: cell-based; conditions: 0.01 μM to 100 μM, 72 h
Description: (§1) The human prostate cancer cells (PC3) and human osteosarcoma cells (MG-63) were obtained from Nawah Scientific Inc. (Mokatam, Cairo, Egypt) and cultured in DMEM (Dulbecco's modified eagle's medium), Gibco, USA, supplemented with fetal bovine serum (FBS) at a concentration of 10% and 100 U/mL of penicillin and streptomycin (PS). The Cells were incubated at 37° C. in a humidified environment that contained 5% CO2.
(§2) Cells were seeded in 96-well plates as aliquots of 100 μL cell suspension and incubated in a complete media for 24 h. Afterward, cells were treated with 3-(2-(4-methoxypyridin-3-yl)-4,5-diphenyl-1H-imidazol-1-yl)-N,N-dimethylpropan-1-amine at diverse concentrations ranging from 0.01 μM to 100 μM for 72 h. Then, cells were fixed at 4° C. for one hour with 150 μL of 10% trichloroacetic acid (TCA). After washing the cells five times with distilled water, 70 μL of sulforhodamine (SRB) solution (0.4% w/v) was added and incubated for 10 min at room temperature in a dark place. […] Then, 150 μL of Tris pH 10.5 (10 mM) was added, and the absorbance was measured at 540 nm using a BMG LABTECH®-FLUOstar Omega microplate reader (Ortenberg, Germany). Half maximal inhibitory concentrations (IC50) values were calculated for each experiment using GraphPad Prism 6 software. […]
(§3) The inhibition was calculated using the following equation: Inhibition %=100−Average Viability

[2] = tested on: human osteosarcoma cells (MG-63); test: Assessment of cytotoxicity by SRB assay (MG-63); type: cell-based; conditions: 0.01 μM to 100 μM, 72 h
Description: as §1, §2, §3

- melting point: 128 to 131 °C
Compound: COc1ccncc1-c1nc(-c2ccccc2)c(-c2ccccc2)n1CCCN(C)C [3-(2-(4-methoxypyridin-3-yl)-4,5-diphenyl-1H-imidazol-1-yl)-N,N-dimethylpropan-1-amine]
- antiproliferative activity against cancer cells (PC3) [1]: excellent antiproliferative activities
- antiproliferative activity against osteosarcoma (MG-63) cells [2]: excellent antiproliferative activities
